Experimental data: patent US11787772B2, “Carboxylic diarythiazepineamines as mixed mu- and delta-opioid receptor agonists” (THE TRUSTEES OF COLUMBIA UNIVERSITY IN THE CITY OF NEW YORK, priority 2017, dated 2023)

Assays:
physchem = conditions: 25 °C, thermodynamic from solid
Method: Test compounds (4 mg) were added to 200 μL of one of the tested aqueous solutions (hereinafter—buffer): 100 mM aqueous HCl (pH 1) or 100 mM Na-phosphate buffer (pH 7). The obtained suspensions/solutions with the theoretical concentration of 20 mg/mL were further allowed to equilibrate at 25° C. on a thermostatic orbital shaker for 24 hours and then centrifuged at 6000 rpm for 4 minutes and filtered through HTS filter plates using a vacuum manifold. In parallel, compound dilutions in 50% acetonitrile/HCl and 30% acetonitrile/Na-phosphate buffer mixes were prepared to theoretical concentrations of 0 mg/mL (blank), 0.1 mg/mL, 0.2 mg/mL, and 0.4 mg/mL in duplicates to generate calibration curves falling within the optimum UV absorption range. The filtrates of test compounds were diluted 100-fold with acetonitrile-buffer mixtures before measuring. The filtered supernatant test samples were transferred to 96-well plates and measured for absorbance in the 200-550 nm range with 5 nm step increment. The concentrations of compounds in supernatants were calculated using the measured absorbance and the previously determined calibration curve. Proper absorbance wavelengths for calculations were selected for each compound manually based on absorbance maxima (absolute absorbance unit values for the minimum and maximum concentration points within 0-2.5 OD range).

[1] = molecular target: T1, human mu opioid receptor (MOR) (Homo sapiens, UniProt P35372); test: BRET assay measuring G protein activation, agonist activity at human MOR; format: cell-based
T1 construct: expressed in transfected cells; host or cells: HEK-293T
Method: The diarylthiazepinamine carboxylic acids (9) were tested for agonist activity at the human mu opioid receptor (MOR) and delta opioid receptor (DOR) using bioluminescence resonance energy transfer (BRET) assays measuring G protein activation as previously described (Table 1) (Rives, M.-L. et al. 2012; Negri, A. et al. 2013).
Human MOR cDNA was transfected alongside GααB with RLuc8 inserted at position 91 (GααB—RLuc8), Gβ1 (β1), and Gγ2 fused to the full-length mVenus at its N terminus (mVenus-γ2) into HEK-293T cells (5×10^6 cells/plate) in 10-cm dishes using PEI (Polysciences Inc.; Warrington, PA) in a 1:1 ratio diluted in Opti-MEM (Life Technologies Corp.; Grand Island, NY) to assay for G protein activation as described previously (Rives, M.-L. et al. 2012; Negri, A. et al. 2013). Cells were maintained in Dulbecco's Modified Eagle Medium (high glucose #11965; Life Technologies) supplemented with 10% FBS (Premium Select, Atlanta Biologicals; Atlanta, GA) and 100 U/mL penicillin and 100 μg/mL streptomycin (#15140, Life Technologies). After 24 hours the media was changed, and the experiment was performed 24 hours later (48 hours after transfection).
Transfected cells were dissociated and re-suspended in phosphate-buffered saline (PBS). Approximately 200,000 cells/well were added to a black-framed, white well 96-well plate (#60050; Perkin Elmer; Waltham, MA). The microplate was centrifuged and the cells were re-suspended in PBS. Then 5 μM of the luciferase substrate coelenterazine H was added to each well for 5 minutes. Following coelenterazine H addition, ligands were added and the BRET signal was measured at 5 minutes on a PHERAstar FS plate reader. Quantification of the BRET signal required calculating the ratio of the light emitted by the energy acceptor, mVenus (510-540 nm), over the light emitted by the energy donor, RLuc8 (485 nm). […] Dose response curves were fit using a three-parameter logistics equation in GraphPad Prism 6.
The additional diarylthiazepinamine carboxylic acids (9i, 9j, 9k, and 91) were tested for agonist activity at the human mu opioid receptor (MOR) using bioluminescence resonance energy transfer (BRET) assays measuring G protein activation (Table 2) as previously described (Rives, M.-L. et al. 2012; Negri, A. et al. 2013; Example 2 of the present application).

male C57BL/6 mice = test: Analgesic activity in hot plate assay; format: in vivo, mouse
Method: Male C57BL/6 mice were timed for latency to jump on a hot-plate apparatus set to 55° C., using a 30 s cutoff to prevent tissue damage. Following a baseline test, animals were injected subcutaneously (s.c.) with escalating doses of drug and tested at […] (time of maximal effect). Dose-response curves were fit via nonlinear regression using GraphPad Prism (La Jolla, CA).

[2] = Solubility determination (Method B), neutral water; format: physicochemical
Method: A quantity of the appropriate compound sufficient to saturate the resulting solution was added to distilled water (0.50 mL) and the mixture agitated on an orbital shaker for 2 h at room temperature (20° C.). The mixture was then centrifuged for 5 min. at 21,000×g and the supernatant was carefully removed by syringe and passed through a […] syringe filter. An aliquot (300 μL) of the filtered supernatant was concentrated in vacuo and the mass of the residual solids determined in order to calculate the solubility.

T1 sequence (P35372 whole entry): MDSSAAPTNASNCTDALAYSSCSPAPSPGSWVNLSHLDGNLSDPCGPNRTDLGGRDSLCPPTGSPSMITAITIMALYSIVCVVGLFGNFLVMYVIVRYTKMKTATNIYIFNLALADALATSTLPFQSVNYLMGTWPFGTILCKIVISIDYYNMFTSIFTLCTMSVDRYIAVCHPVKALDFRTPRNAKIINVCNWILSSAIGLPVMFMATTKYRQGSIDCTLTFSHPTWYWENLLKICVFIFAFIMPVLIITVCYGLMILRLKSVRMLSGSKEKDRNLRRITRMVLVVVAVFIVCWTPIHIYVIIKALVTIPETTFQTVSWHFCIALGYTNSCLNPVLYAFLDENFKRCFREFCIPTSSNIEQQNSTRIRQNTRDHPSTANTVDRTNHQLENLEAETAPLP

SMILES: CN1c2ccccc2C(NCCCCCCC(=O)O)c2cc(F)c(I)cc2S1(=O)=O.Cl (centres unmarked) [Compound 9k, 7-((2-fluoro-3-iodo-6-methyl-5,5-dioxido-6,11-dihydrodibenzo [c,f][1,2]thiazepin-11-yl)amino) heptanoic acid hydrochloride salt]
- solubility (physchem; pH 1, simulated gastric fluid): 2700 µg/mL
- solubility (physchem; pH 7, aqueous buffer): 390 µg/mL
- EC50 [1]: 4.6 nM
- MOR potency relative to analogs lacking substitution at position 2 ([1]; dihalo-substituted core): equipotent or more potent
- ED50 (male C57BL/6 mice; Mus musculus, sc, hot plate 55° C., male C57BL/6 mice, tested at 15 post-injection): 1.7 mg/kg
- Analgesic activity in the mouse hot plate assay (male C57BL/6 mice; much higher potency than tianeptine): potent analgesics
- solubility at 2 h ([2]; distilled water, thermodynamic from solid, neutral water, 20° C., Method B (2 h orbital shaker), read-out: Aqueous Solubility (mg/mL @ 20° C.)): 5.7 mg/mL
- Solubility relative to monohalo counterpart iodotianeptine ([2]; neutral unbuffered water): 2-3 fold
